In patent US5168102A, “Endocrine manipulation to improve body composition of poultry” (priority 1990, dated 1992):

Columns and labels:
[1] = Example 3: growth performance, graded doses of dietary T3; format: in vivo, broiler cockerels; conditions: for Average Daily Gain: week no. 5 to 7
Experimental: Day-old broiler cockerels were randomly assigned to 24 pens (5 birds/pen) in a battery brooder. The total duration of the bird management period lasted from 7 to 8 weeks. Hereafter, the end of the first week of life of the birds is referred to as week no. 1 (i.e. 7 days of life), the end of the second week as week no. 2, etc. At week no. 3, four birds from each pen were transferred to wire grow-out cages. […] 5 to week no. 7 (4 pens/treatment). Body weight and feed consumption were determined at weekly intervals. A 5 ml blood sample was obtained from each bird at week no. 7 and stored at -20° C. until assayed for plasma hormones.
Data were analyzed by analysis of variance for a randomized complete-block design. Data for ADG, ADFC and FTG were based on pen average. Unless otherwise indicated, data used for analysis was obtained from individual birds. Difference among treatments were tested by Fisher's protected LSD method.

[2] = Example 1: body composition (proximate analysis of carcass); format: in vivo, broiler cockerels (Ross X Arbor Acre strain)
Text: The purpose of this study was to determine the effect manipulating blood levels of thyroid hormones and/or growth hormone on growth performance and body composition of broiler chickens. […] Purified natural chicken growth hormone (ncGH) was obtained from the Research and Education Center, Harbor-UCLA Medical Center, Torrance, Calif. […] The premix (200 g) was then used to prepare 50 kg batches of each experimental diet according to the formula for broiler-finisher ration described in Table 1. The diet containing 0.5% PTU was prepared by mixing 250 g of PTU into 49.75 kg of the basal ration (Table 1).
Broiler cockerels (Ross X Arbor Acre strain) were raised to 3 weeks-of-age in a battery-brooder and then transferred to wire grow-out cages (4 birds/pen) held in two controlled-environment rooms (10 pens/room). Beginning at 3 weeks of age, eight birds (2 pens of 4 birds) were randomly assigned to each of 10 treatments. The chickens were provided the experimental diets and water ad libitum. […] For injection, the ncGH was reconstituted in sterile 0.025M sodium bicarbonate buffer (pH 9.8). The 10 treatments were administered for 21 days (i.e., from 3 to 6 weeks of age).
Measurement of body weight and feed consumption at weekly intervals allowed calculation of the average daily gain (ADG, g/bird/day), average daily feed consumption (ADFC, g/bird/day) and the feed-to-gain ratio (FIG, kg feed/kg gain) over the 21 day experimental period. Blood samples were taken each week (4, 5, and 6 weeks) just before (pre-injection) and 4 hours post-injection of ncGH. […] At the conclusion of the study, birds were killed and the carcasses frozen for proximate analysis. The frozen carcasses were ground in a meat grinder and aliquots of each ground carcass taken for determination of moisture, protein, fat and ash by established analytical procedures (Official Method of Analysis, Edition 13, W. Horwitz ed., Association of Official Analytical Chemist, Washington, D.C., 1980). Body composition data are presented as a percent of live weight at 6 weeks-of-age. Least squares regression analysis was used to test for significant differences (P<0.05) due treatment.

[3] = plasma thyroid hormone bioactivity 360-1200% of normal
[4] = Group 1, dietary, 6 weeks-of-age, N = 8

In the case of N[C@@H](Cc1cc(I)c(Oc2ccc(O)c(I)c2)c(I)c1)C(=O)O [T3, 3,3',5-triiodo-L-thyronine], the “effect on ADFC and GTF” value ([1]; 0.25 and 1.0 ppm) was “did not affect the ADFC and GTF”, the “effect on ADG” value ([1]; 0.25 ppm) was “the decrease in 0.25 ppm-fed birds was not significant” and the “Average Daily Feed Consumption” value ([1]; 0.25 ppm of feed) was 150.2 ± 10.0 g. The “Gain-To-Feed Ratio” value ([1]; 0.25 ppm of feed) was 0.441 ± .014, the “Average Daily Gain” value ([1]; 0.25 ppm of feed) was 66.5 ± 6.0 g and the “Average Daily Feed Consumption” value ([1]; 1.0 ppm of feed) was 139.0 ± 4.6 g. The “Gain-To-Feed Ratio” value ([1]; 1.0 ppm of feed) was 0.409 ± 0.01, the “Average Daily Gain” value ([1]; 1.0 ppm of feed) was 57.0 ± 3.0 g and the “ADFC, reduction” value ([1]; 4.0 ppm (p<0.05)) was 35%. The “gain to feed ratio (GTF), reduction” value ([1]; 4.0 ppm (p<0.05)) was 33%, the “Average Daily Feed Consumption” value ([1]; 4.0 ppm of feed) was 99.5 ± 1.7 g and the “Gain-To-Feed Ratio” value ([1]; 4.0 ppm of feed) was 0.302 ± .013. For the same molecule, the “Average Daily Gain” value ([1]; 4.0 ppm of feed) was 30.0 ± 1.1 g, the “body weight gain, depression” value [1, 3] was no more than 57% and the “feed consumption, depression” value [1, 3] was no more than 35%. For the same molecule, the “Body composition: Ash” value [2, 4] was 2.19 ± .05 % BW, the “Body composition: Fat” value [2, 4] was 10.1 ± 1.2 % BW and the “Body composition: Protein” value [2, 4] was 18.4 ± .22 % BW. For the same molecule, the “Body composition: Water” value [2, 4] was 68.6 ± 1.0 % BW, the “effect on fat deposition” value ([2]; finishing phase) was “decreases fat deposition in chickens” and the “body fat content, reduction” value ([2]; vs CF group) was 17%. The “effect on body protein, water and ash” value ([2]; vs CF group) was “body protein and water were slightly increased”.
